Reference: patent publication US6861528B2, “Carboxylated heterocyclic compounds and methods of synthesis” (R.T. Alamo Ventures I, LLC, priority 2002, dated 2005)

Test system: Protein Serine/Threonine Kinase PKC, non-selective
Experiment: Protein Serine/Threonine Kinase PKC, non-selective enzyme assay ([32P]histone quantitated)
Assay type: biochemical
Conditions: 1% DMSO vehicle, rat brain enzyme, histone substrate
Text: In this example, carboxyflosequinan was subjected to biochemical enzyme assays and radioligand binding assays to determine its percent inhibition of a variety of enzyme activities. Tamaoki and Nakano “Potent and specific inhibitors of protein kinase C of microbial origin” Biotechnology 8:732 (1990); Wilkinson et al. “Isoenzyme specificity of bisindolymaleimides, selective inhibitors of protein kinase C” Biochem. J. 294:335 (1993); Tamaki et al. “Staurosporine, a potent inhibitor of phospholipid/Ca++ dependent protein kinase” Biochem. Biophys. Res. Comm, 135:397 (1986). A brief summary of the conditions for each assay is provided below:
Protein Serine/Threonine Kinase PKC, non-selective: The enzyme was obtained from rat brain and the substrate was 370 μg/ml histone. The reaction was pre-incubated 5 min at 25° C., followed by a 15 min incubation at 25° C. in a buffer of 20 mM Tris-HCl, […] and 0.1 mM CaCl2.2HO, pH 7.4. [^32P]histone was quantitated.
FIG. 3 projects data for carboxyflosequinan in the assays described above. In these protein kinase assays, carboxyflosequinan was used in varying concentrations (in 1% DMSO as the vehicle). For the protein serine/threonine kinase (PKC, non-selective), carboxyflosequinan was tested at a concentrations of 100 μM, 300 μM, and 1000 μM. […] (See, FIG. 3).

Measured: inhibition of protein serine/threonine kinase (PKC, non-selective)

Cn1cc([S+]([O-])CC(=O)O)c(=O)c2ccc(F)cc21 (stereo not drawn) [carboxyflosequinan, 3-carboxymethylsulfinyl-7-fluoro-1-methyl-4-quinolone]
greater than 50%: 100 μM carboxyflosequinan | 300 μM carboxyflosequinan | 1000 μM carboxyflosequinan
